From patent US20260130395A1, “Water Dispersible Botanical Compositions” (Aquila Black Limited, priority 2021, published 2026)

Assay: Stability of cannabinoid compounds and Vitamin E components in Beverage 1 (AB White) by LCMSMS
Assay type: physicochemical
Settings: for Stability of Plant-Derived Cannabinoid Compounds in AB White, 8° C.: AB White stored at 8° C.; for Stability of Plant-Derived Cannabinoid Compounds in AB White, 21-25° C.: AB White stored at 21-25° C.

CCCCCc1cc(O)c2c(c1)OC(C)(C)c1ccc(C)cc1-2 [CBN, cannabinol]
2.69 µg/mL: Stability of Plant-Derived Cannabinoid Compounds in AB White, 8° C. (150 days) | Stability of Plant-Derived Cannabinoid Compounds in AB White, 21-25° C. (22 days) | Stability of Plant-Derived Cannabinoid Compounds in AB White, 21-25° C. (26 days)
2.74 µg/mL: Stability of Plant-Derived Cannabinoid Compounds in AB White, 8° C. (90 days) | Stability of Plant-Derived Cannabinoid Compounds in AB White, 21-25° C. (210 days)
2.81 µg/mL: Stability of Plant-Derived Cannabinoid Compounds in AB White, 21-25° C. (2 days) | Stability of Plant-Derived Cannabinoid Compounds in AB White, 21-25° C. (15 days)
2.67 µg/mL: Stability of Plant-Derived Cannabinoid Compounds in AB White, 8° C. (390 days) | Stability of Plant-Derived Cannabinoid Compounds in AB White, 21-25° C. (120 days) | Stability of Plant-Derived Cannabinoid Compounds in AB White, 21-25° C. (270 days) | Stability of Plant-Derived Cannabinoid Compounds in AB White, 21-25° C. (360 days)
2.56 µg/mL: Stability of Plant-Derived Cannabinoid Compounds in AB White, 8° C. (540 days) | Stability of Plant-Derived Cannabinoid Compounds in AB White, 8° C. (570 days) | Stability of Plant-Derived Cannabinoid Compounds in AB White, 21-25° C. (570 days)
2.73 µg/mL: Stability of Plant-Derived Cannabinoid Compounds in AB White, 8° C. (3 days) | Stability of Plant-Derived Cannabinoid Compounds in AB White, 21-25° C. (3 days) | Stability of Plant-Derived Cannabinoid Compounds in AB White, 21-25° C. (19 days) | Stability of Plant-Derived Cannabinoid Compounds in AB White, 21-25° C. (300 days)
2.63 µg/mL: Stability of Plant-Derived Cannabinoid Compounds in AB White, 21-25° C. (60 days) | Stability of Plant-Derived Cannabinoid Compounds in AB White, 21-25° C. (540 days)
2.75 µg/mL: Stability of Plant-Derived Cannabinoid Compounds in AB White, 8° C. (8 days) | Stability of Plant-Derived Cannabinoid Compounds in AB White, 8° C. (24 days) | Stability of Plant-Derived Cannabinoid Compounds in AB White, 8° C. (25 days) | Stability of Plant-Derived Cannabinoid Compounds in AB White, 8° C. (210 days) | Stability of Plant-Derived Cannabinoid Compounds in AB White, 8° C. (270 days) | Stability of Plant-Derived Cannabinoid Compounds in AB White, 8° C. (330 days) | Stability of Plant-Derived Cannabinoid Compounds in AB White, 21-25° C. (12 days) | Stability of Plant-Derived Cannabinoid Compounds in AB White, 21-25° C. (16 days) | Stability of Plant-Derived Cannabinoid Compounds in AB White, 21-25° C. (25 days) | Stability of Plant-Derived Cannabinoid Compounds in AB White, 21-25° C. (29 days) | Stability of Plant-Derived Cannabinoid Compounds in AB White, 21-25° C. (330 days)
2.79 µg/mL: Stability of Plant-Derived Cannabinoid Compounds in AB White, 8° C. (0 days) | Stability of Plant-Derived Cannabinoid Compounds in AB White, 8° C. (10 days) | Stability of Plant-Derived Cannabinoid Compounds in AB White, 8° C. (15 days) | Stability of Plant-Derived Cannabinoid Compounds in AB White, 21-25° C. (0 days) | Stability of Plant-Derived Cannabinoid Compounds in AB White, 21-25° C. (1 days) | Stability of Plant-Derived Cannabinoid Compounds in AB White, 21-25° C. (24 days)
2.70 µg/mL: Stability of Plant-Derived Cannabinoid Compounds in AB White, 8° C. (240 days) | Stability of Plant-Derived Cannabinoid Compounds in AB White, 8° C. (420 days) | Stability of Plant-Derived Cannabinoid Compounds in AB White, 8° C. (450 days) | Stability of Plant-Derived Cannabinoid Compounds in AB White, 21-25° C. (17 days)
2.82 µg/mL: Stability of Plant-Derived Cannabinoid Compounds in AB White, 8° C. (17 days)
2.71 µg/mL: Stability of Plant-Derived Cannabinoid Compounds in AB White, 8° C. (11 days) | Stability of Plant-Derived Cannabinoid Compounds in AB White, 8° C. (18 days) | Stability of Plant-Derived Cannabinoid Compounds in AB White, 8° C. (19 days) | Stability of Plant-Derived Cannabinoid Compounds in AB White, 8° C. (23 days) | Stability of Plant-Derived Cannabinoid Compounds in AB White, 8° C. (300 days) | Stability of Plant-Derived Cannabinoid Compounds in AB White, 21-25° C. (8 days) | Stability of Plant-Derived Cannabinoid Compounds in AB White, 21-25° C. (240 days)
2.72 µg/mL: Stability of Plant-Derived Cannabinoid Compounds in AB White, 8° C. (2 days) | Stability of Plant-Derived Cannabinoid Compounds in AB White, 8° C. (120 days) | Stability of Plant-Derived Cannabinoid Compounds in AB White, 21-25° C. (30 days)
2.62 µg/mL: Stability of Plant-Derived Cannabinoid Compounds in AB White, 21-25° C. (420 days)
2.78 µg/mL: Stability of Plant-Derived Cannabinoid Compounds in AB White, 8° C. (30 days) | Stability of Plant-Derived Cannabinoid Compounds in AB White, 21-25° C. (9 days) | Stability of Plant-Derived Cannabinoid Compounds in AB White, 21-25° C. (18 days)
2.66 µg/mL: Stability of Plant-Derived Cannabinoid Compounds in AB White, 8° C. (480 days) | Stability of Plant-Derived Cannabinoid Compounds in AB White, 21-25° C. (90 days) | Stability of Plant-Derived Cannabinoid Compounds in AB White, 21-25° C. (390 days) | Stability of Plant-Derived Cannabinoid Compounds in AB White, 21-25° C. (510 days)
2.80 µg/mL: Stability of Plant-Derived Cannabinoid Compounds in AB White, 8° C. (12 days) | Stability of Plant-Derived Cannabinoid Compounds in AB White, 21-25° C. (5 days) | Stability of Plant-Derived Cannabinoid Compounds in AB White, 21-25° C. (11 days)
2.68 µg/mL: Stability of Plant-Derived Cannabinoid Compounds in AB White, 8° C. (60 days) | Stability of Plant-Derived Cannabinoid Compounds in AB White, 8° C. (360 days) | Stability of Plant-Derived Cannabinoid Compounds in AB White, 21-25° C. (23 days) | Stability of Plant-Derived Cannabinoid Compounds in AB White, 21-25° C. (180 days)
2.61 µg/mL: Stability of Plant-Derived Cannabinoid Compounds in AB White, 21-25° C. (450 days)
2.76 µg/mL: Stability of Plant-Derived Cannabinoid Compounds in AB White, 8° C. (5 days) | Stability of Plant-Derived Cannabinoid Compounds in AB White, 8° C. (9 days) | Stability of Plant-Derived Cannabinoid Compounds in AB White, 8° C. (22 days) | Stability of Plant-Derived Cannabinoid Compounds in AB White, 8° C. (26 days) | Stability of Plant-Derived Cannabinoid Compounds in AB White, 8° C. (29 days)
2.60 µg/mL: Stability of Plant-Derived Cannabinoid Compounds in AB White, 8° C. (510 days)
2.77 µg/mL: Stability of Plant-Derived Cannabinoid Compounds in AB White, 8° C. (1 days) | Stability of Plant-Derived Cannabinoid Compounds in AB White, 8° C. (16 days) | Stability of Plant-Derived Cannabinoid Compounds in AB White, 8° C. (180 days) | Stability of Plant-Derived Cannabinoid Compounds in AB White, 21-25° C. (10 days) | Stability of Plant-Derived Cannabinoid Compounds in AB White, 21-25° C. (150 days)
2.57 µg/mL: Stability of Plant-Derived Cannabinoid Compounds in AB White, 21-25° C. (480 days)
